Several values for one entry are separate records, joined by “and”; a condition that tells them apart may be missing. Equal values may be shown once. Read-outs that look alike come from different tables or passages of the source.

Data set [1] deals with T1, human porphobilinogen synthase (HsPBGS) (Homo sapiens, UniProt P13716, C162A/K59N).
T1 sequence (P13716 1-330 K59N/C162A): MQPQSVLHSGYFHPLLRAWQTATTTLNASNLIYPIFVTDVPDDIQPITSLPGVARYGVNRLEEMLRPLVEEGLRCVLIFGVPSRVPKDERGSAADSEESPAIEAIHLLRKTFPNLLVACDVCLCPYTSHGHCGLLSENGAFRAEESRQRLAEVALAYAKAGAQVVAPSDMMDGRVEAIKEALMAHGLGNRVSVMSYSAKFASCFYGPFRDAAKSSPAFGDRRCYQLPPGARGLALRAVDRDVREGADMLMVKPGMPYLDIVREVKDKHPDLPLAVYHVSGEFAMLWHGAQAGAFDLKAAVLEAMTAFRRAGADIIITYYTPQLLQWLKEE
As to the kind of experiment: biochemical. The data set is classed as biochemical.

Data set [2] concerns the target T2, HsPBGS oligomeric equilibrium (hexamer/octamer) (Homo sapiens, UniProt P13716, C162A/K59N).
T2 sequence (P13716 1-330 K59N/C162A): T1 sequence (P13716 1-330 K59N/C162A)
Particulars: for Effect on HsPBGS oligomeric distribution, in words: native PAGE.

The target of data set [3] is T2, HsPBGS oligomeric equilibrium (hexamer/octamer). As to the kind of experiment: Initial native PAGE screen of the NTP library. The following applies: 2 mM compound, 40 °C 30 min.
The conditions of data set [4]: reagents compatible with the HsPBGS activity assay.
For data set [5], the system named is HsPBGS. Particulars: Johns Hopkins Clinical Compounds Library, native PAGE; ref [15]; cited from earlier work.
In data set [6] the target is T3, PBGS from Pisum sativum (green pea) (Pisum sativum, UniProt P30124).
T3 sequence (P30124 1-398): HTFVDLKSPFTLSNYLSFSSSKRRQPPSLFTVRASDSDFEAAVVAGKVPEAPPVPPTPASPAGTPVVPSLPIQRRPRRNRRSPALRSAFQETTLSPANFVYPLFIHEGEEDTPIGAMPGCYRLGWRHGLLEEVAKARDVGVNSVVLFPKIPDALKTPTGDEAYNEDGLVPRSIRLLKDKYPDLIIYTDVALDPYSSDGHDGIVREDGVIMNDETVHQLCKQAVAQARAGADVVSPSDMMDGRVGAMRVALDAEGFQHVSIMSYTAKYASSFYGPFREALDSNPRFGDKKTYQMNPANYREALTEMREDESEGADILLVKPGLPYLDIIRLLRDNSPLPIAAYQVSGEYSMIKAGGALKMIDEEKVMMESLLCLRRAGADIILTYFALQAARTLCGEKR
As to the kind of experiment: Inhibition of PBGS from Pisum sativum. The data set is classed as biochemical. The following applies: data not shown.

For data set [7], the target named is PBGS from Pseudomonas aeruginosa (Pseudomonas aeruginosa, UniProt Q59643). Briefly: Inhibition of PBGS from Pseudomonas aeruginosa. The data set is classed as biochemical. The following applies: data not shown.
Sequence of PBGS from Pseudomonas aeruginosa (Q59643 whole entry): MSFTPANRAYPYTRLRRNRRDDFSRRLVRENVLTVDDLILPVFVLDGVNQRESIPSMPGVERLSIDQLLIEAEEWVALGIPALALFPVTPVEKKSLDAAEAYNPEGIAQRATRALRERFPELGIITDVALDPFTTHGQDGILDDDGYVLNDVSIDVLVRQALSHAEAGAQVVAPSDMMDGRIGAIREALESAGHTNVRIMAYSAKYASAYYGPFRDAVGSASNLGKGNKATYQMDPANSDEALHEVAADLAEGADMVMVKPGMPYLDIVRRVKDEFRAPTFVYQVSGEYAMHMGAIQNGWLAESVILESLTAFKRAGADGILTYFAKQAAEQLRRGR
For data set [8], the system named is PBGS from Yersinia enterocolitica. Briefly: Inhibition of PBGS from Yersinia enterocolitica. Particulars: data not shown. The data set is classed as biochemical.
Where [9] appears, read: fit of the inhibition curve, 0 = hyperbolic decay to zero.
[10] abbreviates: percentage of HsPBGS hexamer at 20 mM compound, 42 °C 1 h, no substrate.
Setting [11] is: preincubation 42 °C 1 h, 10 μg/mL HsPBGS, 10 mM substrate, final pH 7.8.
Setting [12] is: at 3 mM compound, sum of hexameric and dimeric bands (~2:1) (footnote f).
Where [13] appears, read: at 2 mM compound (highest concentration, footnote d).

One may read the IC50 as the concentration needed to halve the response being measured. A low value points to higher potency. Consider `O=Cc1c(Cl)cccc1Cl` [2,6-Dichlorobenzaldehyde], for which, in data set [1], the “FAmin (minimum fractional activity derived from the titration)” value is recorded as 0% and the IC50 was 15.2 ± 1.5 µM. Besides, the “Mole Fraction Hexamer max (obsd)” value in data set [2] was 100% and 100 ± 0%.
As for `c1cc(OCC2CO2)cc(OCC2CO2)c1` (stereo not drawn) [Diglycidyl resorcinol ether], the IC50 in data set [1] is 36.3 ± 2.4 µM. For the same molecule, the “FAmin (minimum fractional activity derived from the titration)” value in data set [1] (setting [9]) came to 0%. Besides, in data set [2] (setting [10]), the “Mole Fraction Hexamer max (obsd)” value was 87.4 ± 2.7%.
The corresponding values for `O=Cc1ccc(Cl)c(Cl)c1` [3,4-Dichlorobenzaldehyde] are 26.6 ± 2 µM, 0% and 30.4 ± 2.2%.
In the case of `O=Cc1ccc(Cl)cc1Cl` [2,4-Dichlorobenzaldehyde], in data set [1], the 50% inhibitory concentration (IC50) amounted to 107 ± 4 µM and the “Inhibition of HsPBGS activity, in words” value is recorded as “very poor inhibitors of HsPBGS activity”. In addition, the “Effect on HsPBGS oligomeric distribution, in words” value (“Effect” below) in data set [2] is on record as “very effective at stabilizing the HsPBGS hexamer”. Further, in data set [2] (setting [10]), the “Mole Fraction Hexamer max (obsd)” value came out at 86.2 ± 0.7%. Besides, in data set [3], the “Result of initial screen (increase of mole fraction of hexamer)” value is “preliminary hits”.
As to `C=Cc1ccc(C=C)cc1` [p-divinyl benzene], the “Result of initial screen (increase of mole fraction of hexamer)” value in data set [3] is “preliminary hits”. Moreover, the “Solubility, in words” value in data set [4] is listed as “insolubility in reagents compatible with the HsPBGS activity assay”.
For the molecule `CC(=O)[O-].CC(=O)[O-].[Cd+2]` [Cadmium acetate], in data set [1] (setting [9]), the “FAmin (minimum fractional activity derived from the titration)” value came out at 16.7 ± 4.0%. Also, in data set [1] (setting [11]), the IC50 was determined as 3.6 ± 0.7 µM. In addition, the “Mole Fraction Hexamer max (obsd)” value in data set [2] (setting [12]) was 92.2 ± 0.6 ^f %.
In data set [1], `O=C1[C@H]2CC=CC[C@H]2C(=O)N1SC(Cl)(Cl)Cl` [Captan, (3aR,7aS)-2-[(trichloromethyl)sulfanyl]-3a,4,7,7a-tetrahydro-1H-isoindole-1,3(2H)-dione] had an IC50 of 3 ± 0.3 µM. The “FAmin (minimum fractional activity derived from the titration)” value in data set [1] (setting [9]) was found to be 0%. The “Mole Fraction Hexamer max (obsd)” value in data set [2] (setting [13]) was 72.3 ± 0.3% and 72.3 ± 0.2 ^d %.
`O=C/C=C/c1ccccc1` [trans-cinnamaldehyde]: the “Result of initial screen (increase of mole fraction of hexamer)” value in data set [3] was “preliminary hits”.
`O=[N+]([O-])c1cccc(CCl)c1` [m-Nitrobenzyl chloride]: the “FAmin (minimum fractional activity derived from the titration)” value in data set [1] (setting [9]) is on record as 0%. Further, in data set [1] (setting [11]), inhibition was half-maximal at 27.1 ± 2.2 µM (IC50). In data set [2] (setting [10]), the “Mole Fraction Hexamer max (obsd)” value stood at 79.8 ± 1.3%.
In the case of `CNc1ccc(O)cc1.CNc1ccc(O)cc1.O=S(=O)(O)O` [N-methyl-p-aminophenol sulfate], the “FAmin (minimum fractional activity derived from the titration)” value in data set [1] (setting [9]) stood at 0%. In data set [1] (setting [11]), this molecule registered a 50% inhibitory concentration (IC50) of 13.7 ± 1.3 µM. The “Mole Fraction Hexamer max (obsd)” value in data set [2] (setting [10]) is given as 68.1 ± 0.9%.
`NC(=O)NN=Cc1ccc([N+](=O)[O-])o1` [Nitrofurazone, 5-nitro-2-furaldehyde semicarbazone, reference compound]: the “FAmin (minimum fractional activity derived from the titration)” value in data set [1] (setting [9]) was 0%. For the same molecule, the “Mole Fraction Hexamer max (obsd)” value is 48.5 ± 0.3 ^d % in data set [2] (setting [13]) and 48.5 ± 0.3% in data set [2] (at 2 mM compound (highest concentration, footnote d), listed as nitrofurazone). In data set [5], the “Result of previous library screen” value is “identified as a hexamer-stabilizing HsPBGS inhibitor”.
As for `CC1=C2[C@H](/C=C(\C)C(=O)O)CC[C@@H](C)[C@H]2CC1` [Valerenic acid, (2E)-3-[(4S,7R,7aR)-3,7-dimethyl-2,4,5,6,7,7a-hexahydro-1H-inden-4-yl]-2-methylacrylic acid], in data set [1], the concentration for half-maximal inhibition (IC50) worked out at 8.2 ± 1.7 µM. Also, the “FAmin (minimum fractional activity derived from the titration)” value in data set [1] (setting [9]) turned out to be 33.2 ± 3.9%. For the same molecule, the “Mole Fraction Hexamer max (obsd)” value in data set [2] (setting [10]) turned out to be 64.1 ± 0.9%. In data set [3], the “Result of initial screen (increase of mole fraction of hexamer)” value is recorded as “preliminary hits”.
Regarding `O=C1OC(O)C(C(Cl)Cl)=C1Cl` (stereo not drawn) [Mutagen X, 3-chloro-4-(dichloromethyl)-5-hydroxy-2(5H-furanone)], the “FAmin (minimum fractional activity derived from the titration)” value in data set [1] (setting [9]) amounted to 0%. This molecule also registered an IC50 in data set [1] (setting [11]) of 1.4 ± 0.1 µM. In addition, the “Effect” value in data set [2] was “increase the ratio of hexamer to octamer”. Moreover, the “Inhibition potency relative to HsPBGS, in words” value in data set [6], in data set [7] and in data set [8] was “comparable potency” in each case.
The molecule `O=Cc1ccccc1Cl` [2-Chlorobenzaldehyde] displayed an IC50 in data set [1] of 44.6 ± 4.9 µM. Besides, in data set [1] (setting [9]), the “FAmin (minimum fractional activity derived from the titration)” value is given as 0%. Moreover, the “Mole Fraction Hexamer max (obsd)” value in data set [2] (setting [10]) is listed as 91.8 ± 0.5%.
For `[Cl][Cd][Cl]` [Cadmium chloride], the “FAmin (minimum fractional activity derived from the titration)” value in data set [1] (setting [9]) worked out at 9.2 ± 4.5%. For the same molecule, inhibition in data set [1] (setting [11]) was half-maximal at 6.9 ± 1.2 µM (IC50). The “Mole Fraction Hexamer max (obsd)” value in data set [2] (setting [12]) is on record as 94.9 ± 3.3 ^f %.
In the case of `[Cd+2].[O-2]` [cadmium oxide], the “Result of initial screen (increase of mole fraction of hexamer)” value in data set [3] is on record as “preliminary hits”. The “Solubility, in words” value in data set [4] is “insolubility in reagents compatible with the HsPBGS activity assay”.
Turning to `COC(=O)c1ccc(C=O)cc1` [Methyl-p-formyl benzoate], in data set [1] (setting [9]), the “FAmin (minimum fractional activity derived from the titration)” value was 0%. The molecule also registered an IC50 in data set [1] (setting [11]) of 40.3 ± 0.9 µM. For the same molecule, the “Mole Fraction Hexamer max (obsd)” value in data set [2] (setting [10]) is given as 86.5 ± 1.4%.
Turning to `O=C1CN(/N=C/c2ccc([N+](=O)[O-])o2)C(=O)N1` [Nitrofurantoin, (E)-1-[(5-nitro-2-furyl)methylideneamino]imidazolidine-2,4-dione, reference compound], in data set [1], the “FAmin (minimum fractional activity derived from the titration)” value worked out at 0% and half-maximal inhibition (IC50) was put at 5.9 ± 0.4 µM. The “Result of previous library screen” value in data set [5] was “not identified as a hit”.
Regarding `N.N.[Cl][Pt][Cl]` [cis-Dichlorodiamine platinum, (SP-4-2)-diamminedichloridoplatinum, reference compound], the “FAmin (minimum fractional activity derived from the titration)” value in data set [1] (setting [9]) worked out at 0%. The IC50 in data set [1] (setting [11]) was found to be 17.1 ± 1.5 µM. Further, the “Mole Fraction Hexamer max (obsd)” value in data set [2] (at 1 mM compound (footnote e), higher concentrations precipitate HsPBGS) is recorded as 53.0 ± 0.8 ^e %.
As to `O=Cc1cccc(Br)c1` [3-Bromobenzaldehyde], in data set [1], the IC50 turned out to be 21.5 ± 3.5 µM and the “Inhibition of HsPBGS activity, in words” value was “very poor inhibitors of HsPBGS activity”. For the same molecule, in data set [1] (setting [9]), the “FAmin (minimum fractional activity derived from the titration)” value is reported as 80.8 ± 1.2%. Also, the “Effect” value in data set [2] is “very effective at stabilizing the HsPBGS hexamer”. The “Mole Fraction Hexamer max (obsd)” value in data set [2] (setting [10]) worked out at 89.9 ± 3.4%. Also, the “Result of initial screen (increase of mole fraction of hexamer)” value in data set [3] is on record as “preliminary hits”.

Source of the values: PMC4102012 (Current chemical biology, 2013).
